The values that follow come from US20130295666A1, “CRYSTALS OF GLUCOKINASE REGULATORY PROTEIN (GKRP)” (Boehringer Ingelheim International GmbH, priority 2011, published 2013).

Positions count from the first letter of the chain named. Names and notes keep the numbering of the source.

Usually Kd stands for the equilibrium constant for the complex coming apart. The EC50 is the concentration at which the effect is half-maximal.

For assay [1], the target named is T1, hGKRP_C-His (Homo sapiens, UniProt Q14397).
T1 construct: made in house; host or cells: High FIVE insect cells (baculovirus, BAC-to-BAC)
T1 sequence (Q14397 with tags, fused parts or gaps): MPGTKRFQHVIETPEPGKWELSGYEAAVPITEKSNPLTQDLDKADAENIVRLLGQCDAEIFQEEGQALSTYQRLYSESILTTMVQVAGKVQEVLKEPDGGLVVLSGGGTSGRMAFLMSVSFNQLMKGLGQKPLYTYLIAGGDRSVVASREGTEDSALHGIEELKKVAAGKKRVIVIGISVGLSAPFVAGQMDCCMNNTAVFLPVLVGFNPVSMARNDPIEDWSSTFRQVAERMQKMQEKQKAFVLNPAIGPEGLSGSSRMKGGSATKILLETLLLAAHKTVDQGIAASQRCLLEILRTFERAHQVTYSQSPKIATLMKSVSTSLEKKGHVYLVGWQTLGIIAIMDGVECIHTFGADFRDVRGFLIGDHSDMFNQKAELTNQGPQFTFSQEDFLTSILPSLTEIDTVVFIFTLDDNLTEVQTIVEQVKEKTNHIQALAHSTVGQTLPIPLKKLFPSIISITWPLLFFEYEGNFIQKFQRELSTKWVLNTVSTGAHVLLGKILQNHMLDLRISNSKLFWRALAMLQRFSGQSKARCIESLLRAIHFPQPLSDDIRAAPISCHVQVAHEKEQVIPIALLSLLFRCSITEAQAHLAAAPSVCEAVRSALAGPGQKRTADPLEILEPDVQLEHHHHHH
Description: amide hydrogen (H/D) exchange, ligand-bound vs apo-GKRP. Format: binding. The conditions noted are these: 30 min H/D exchange; six regions; compared to apo-GKRP. As for the experimental part: This experiment was performed to map the potential ligand binding sites via the amide hydrogen exchange behaviour of apo-GKRP in comparison to ligand-bound GKRP.
Amide hydrogen (H/D) exchange was initiated by a 20-fold dilution of 30 pmol hGKRP_C-His with or without ligand into D2O containing 100 mM HEPES, pD 7.4, 200 mM KCl, 100 mM MgCl2, and 2 mM DTT and incubated at room temperature.
After various time points (10 sec, 1 min and 30 min), the exchange reaction was quenched by decreasing the temperature to 0° C. and the pH to 2.5 with quench buffer (500 mM KH2PO4/H3PO4, pH 2.5, 2 M Urea, and 2 mM TCEP). Quenched samples were directly injected into an HPLC setup and analyzed on an electrospray ionization-quadrupole time of flight-mass spectrometer (QSTAR XL, Applied Biosystems) as described by Rist et al. (2003): Mapping temperature-induced conformational changes in the Escherichia coli heat shock transcription factor sigma 32 by amide hydrogen exchange, J. Biol. Chem., 278, 51415-51421.
The HPLC setup contained a column (2×20 mm) packed with Poroszyme immobilized pepsin (Applied Biosystems, Darmstadt, Germany). […] The deuterium content of the peptides was calculated by using the average mass difference between the isotopic envelopes of the deuterated and the undeuterated peptides. […]

The target in assay [2] is T2, rat GKRP (Rattus norvegicus, UniProt Q07071).
T2 sequence (Q07071 1-627): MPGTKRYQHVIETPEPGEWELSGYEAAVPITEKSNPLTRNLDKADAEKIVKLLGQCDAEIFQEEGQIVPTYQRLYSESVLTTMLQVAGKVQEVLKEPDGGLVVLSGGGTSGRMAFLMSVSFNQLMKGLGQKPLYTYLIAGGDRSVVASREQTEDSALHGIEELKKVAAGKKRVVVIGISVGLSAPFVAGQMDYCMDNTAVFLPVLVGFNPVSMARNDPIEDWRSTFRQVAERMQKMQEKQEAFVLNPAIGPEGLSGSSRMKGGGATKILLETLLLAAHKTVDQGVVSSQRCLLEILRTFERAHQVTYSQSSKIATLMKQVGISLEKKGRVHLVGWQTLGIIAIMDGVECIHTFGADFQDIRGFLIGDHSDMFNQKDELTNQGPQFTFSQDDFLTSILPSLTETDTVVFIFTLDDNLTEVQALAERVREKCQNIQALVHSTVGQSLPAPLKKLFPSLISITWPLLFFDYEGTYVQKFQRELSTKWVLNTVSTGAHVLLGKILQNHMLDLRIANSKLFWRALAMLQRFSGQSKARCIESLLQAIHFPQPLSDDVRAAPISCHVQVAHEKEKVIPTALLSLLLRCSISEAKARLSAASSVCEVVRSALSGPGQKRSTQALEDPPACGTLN
The conditions noted are these: Van Schaftingen 1989, Veiga-da-Cunha and Van Schaftingen 2002; cited from earlier work.

Assay [3] addresses T1, hGKRP_C-His. Description: F1P competition with F6P in the coupled GK assay, using hGKRP_C-His. Format: biochemical. The note with it: in the presence of 6 μM F6P, read-out: EC50 of F1P to increase apparent GK activity (inactive GK-GKRP-F6P complex towards free GK). An excerpt: (§1) GKRP preparations according to examples 1 and 2 have been examined with respect to their enzymatic activity. The applied enzymatic assay measures the effect of GKRP on glucokinase activity in the form of a glucose-6-phosphate dehydrogenase coupled assay at room temperature which is a modification of the method described by Van Schaftingen and Brocklehurst et al. (Van Schaftingen, E. (1989): A protein from rat liver confers to glucokinase the property of being antagonistically regulated by fructose 6-phosphate and fructose 1-phosphate; Eur. J. Biochem., 179, 179-184; Brocklehurst, K. J., Davies, R. A. and Agius, L. (2004): Differences in regulatory properties between human and rat glucokinase regulatory protein; Biochem. J., 378, 693-697).
(§2) The reaction mixture contained 150 mM KCl, 100 mM Hepes, 1 mM ATP, 1 mM MgCl2, 2 mM NADP^+, 2 mM dithiothreitol, pH 7.4, 5 units/ml glucose-6-phosphate dehydrogenase, 0.5 mg/ml BSA, 10 mM glucose, 6 μM fructose 6-P, 15 nM human liver glucokinase and 100 nM of the respective GKRP. The enzymatic reaction was started by the addition of ATP and glucose. The increase in optical density was measured at a wavelength 340 nm over 10 minutes. From these kinetic data, the slope was calculated and graphically depicted.
(§3) This effect was investigated using both hGKRP_C-His as well as hGKRP_C-His_K326T/K327T. […]

Assay [4] deals with T3, hGKRP_C-His_K326T/K327T (Homo sapiens, UniProt Q14397, K326T/K327T).
T3 construct: made in house; host or cells: High FIVE insect cells (baculovirus, BAC-to-BAC)
T3 sequence (Q14397 with tags, fused parts or gaps K326T/K327T): T1 sequence (Q14397 with tags, fused parts or gaps) with K326T, K327T
Description: F1P competition with F6P in the coupled GK assay, using hGKRP_C-His_K326T/K327T. It counts as biochemical. The note with it: in the presence of 6 μM F6P, read-out: EC50 of F1P to increase apparent GK activity (inactive GK-GKRP-F6P complex towards free GK).
Excerpt: as §1, §2, §3

In assay [5] the target is T4, human liver glucokinase (human, UniProt P35557-2 1-466, limits assumed).
T4 sequence (looked up): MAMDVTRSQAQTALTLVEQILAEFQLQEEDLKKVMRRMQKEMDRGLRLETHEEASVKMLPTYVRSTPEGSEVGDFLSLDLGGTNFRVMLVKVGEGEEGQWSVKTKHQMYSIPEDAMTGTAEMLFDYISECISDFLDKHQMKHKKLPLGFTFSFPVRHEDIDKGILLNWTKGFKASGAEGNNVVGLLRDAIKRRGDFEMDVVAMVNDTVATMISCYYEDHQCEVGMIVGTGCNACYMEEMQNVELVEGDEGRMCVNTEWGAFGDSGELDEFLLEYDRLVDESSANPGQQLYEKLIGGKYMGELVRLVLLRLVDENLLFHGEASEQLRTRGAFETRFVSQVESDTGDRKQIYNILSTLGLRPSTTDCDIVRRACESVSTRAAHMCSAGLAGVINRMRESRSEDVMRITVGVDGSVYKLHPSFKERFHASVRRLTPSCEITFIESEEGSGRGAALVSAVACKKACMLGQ
Description: cell-based or functional assay.

The subject of assay [6] is human liver glucokinase. In words: glucose-6-phosphate dehydrogenase coupled assay measuring the effect of GKRP on glucokinase activity. The conditions noted are these: GKRP dosed in excess over GK (15 nM), alone. It counts as biochemical.
Excerpt: as §1, §2

As to `O=C(CO)[C@@H](O)[C@H](O)[C@H](O)COP(=O)(O)O` [F6P, fructose-6-phosphate], the “protection of GKRP regions against H/D exchange by the ligand” value in assay [1] is “protection against H/D exchange”. The Kd in assay [2] was 20000 nM.
Consider `O=C(COP(=O)(O)O)[C@@H](O)[C@H](O)[C@H](O)CO` [F1P, fructose-1-phosphate], for which the results for the EC50 in assay [3] and in assay [4] were 6280 ± 1070 nM and 5080 ± 1380 nM, respectively. Besides, the “protection of GKRP regions against H/D exchange by the ligand” value in assay [1] is listed as “protection against H/D exchange”. For the same molecule, the Kd in assay [2] is 1000 nM.

B1: hGKRP_C-His (human glucokinase regulatory protein with C-terminal LEHHHHHH octapeptide) (other)
chain: T1 sequence (Q14397 with tags, fused parts or gaps)
Turning to B1, in assay [5], the “IC50 of inhibition of GK activity in the presence of 6 µM fructose 6-phosphate” value was found to be 74 nM and the “IC50 of inhibition of apparent GK enzymatic activity (glucose-6-phosphate dehydrogenase coupled assay), GKRP alone” value is 124 nM. For the same molecule, the “inhibition of the apparent GK enzymatic activity” value in assay [6] is above 90%.

B2: hGKRP_C-His_K326T/K327T (other)
chain: T1 sequence (Q14397 with tags, fused parts or gaps) with K326T, K327T
Consider B2, for which, in assay [5], the “IC50 of decrease of apparent GK activity in the presence of 6 µM F6P” value was determined as 71 nM and the “IC50 of decrease of apparent GK activity, GKRP alone” value is 116 nM.
